# How the values were obtained:
# [1] = Solubility; format: physicochemical
# [2] = tested on: Til-1 murine lymphocyte cells; assay: Mitigation of radiation-induced apoptosis in vitro: viability of irradiated Til-1 cells (ATPlite) screen; format: cell-based; conditions: Mus musculus, light or radiation study, added 1 hour after 2 Gy, viability 24 h after radiation, relative to control irradiated value (100%), read-out: In Vitro (Mitigation cell viability %)
# Description: The ability of compounds from Example 1 to mitigate radiation-induced apoptosis in vitro relative to control values (100%) is shown in FIG. 1. Briefly, 100,000 small-molecules were screened at 10 μM final concentration in 1% dimethylsulfoxide (DMSO) using the viability of a murine lymphocyte line as a readout (Mitigation cell viability %). Ten thousand Til-1 murine lymphocyte cells were dispensed into each well of 384-well plates using a Multidrop 384 (Thermo Scientific, Waltham, Mass.) The Til-1 cells were irradiated at the dose of 2 Gy. After 1 hour, the small-molecules were added. Twenty-four hours after the radiation, cell viability was assayed by luminesce-based measurement of ATP production (ATPlite, Perkin-Elmer, Waltham, Mass.) with a SpectraMax M5 microplate reader (Molecular Devices, Sunnyvale, Calif.). The Z′ factor for the assay was >0.5. See Zhang, J. H., Chung, T. D., Oldenburg, K. R. “A Simple Statistical Parameter for Use in Evaluation and Validation of High Throughput Screening Assays,” J Biomol Screen 4:67, 1999. A positive readout was >130% of the control irradiated value.
# [3] = tested on: C3H mice and C57 mice; assay: Local thoracic irradiation, radiation pneumonitis and fibrosis; format: in vivo; conditions: local thoracic irradiation 14 and 18 Gy
# [4] = tested on: endogenous colony forming units in the spleens; assay: Endogenous colony forming units in spleens after WBI; format: in vivo, mice; conditions: for Average endogenous CFU per spleen / Total endogenous CFU in spleens: 10 days after WBI at 6.5 Gy, 7.0 Gy, and 7.5 Gy
# Description: For example, Compound 2 (5355512) increased the total endogenous CFU in spleens and average endogenous CFU per spleen, at 10 days after whole body irradiation (WBI) at varying doses (e.g. 6.5 Gy, 7.0 Gy, and 7.5 Gy). (See FIG. 13).
# [5] = tested on: C57Bl/6 mice; assay: Localized abdominal irradiation survival; format: in vivo; conditions: 16 and 18 Gy abdominally
# [6] = tested on: TNF-α production; assay: TNF-α production by LPS-stimulated peritoneal macrophages (ELISA); format: cell-based, murine; conditions: for TNF-α production: added to stimulated peritoneal macrophages 1 hr after LPS, supernatants at 24 hrs, ELISA
# Description: NPSPs were tested for their anti-inflammatory ability using murine macrophages. […] Briefly, peritoneal macrophages (PMs) were induced by intraperitoneal, injection of 150 μg MIS416 (Innate Immunotherapeutics, NZ) and harvested on day 4 by peritoneal wash out with PBS. Culture supernatants were harvested at 24 hrs and cytokines tested by ELISA (BD Biosciences, SD).
# [7] = tested on: C3Hf/Kam and C57B16/J mice; assay: Animal Whole Body Irradiation (WBI) assay, mitigation of lethality; format: in vivo; conditions: for Mitigation of WBI lethality at 5 mg/kg: 5 mg/kg injected subcutaneously; for Most effective dose in dose response: C3H male mice, compared with 1, 2, 10, 40, or 75 mg/kg; for Mitigation of WBI lethality in C57Bl/6 female mice: LD70/30 dose 8.509 Gy; for Survivors at day 30: lowest dosage 5 mg/kg subcutaneously, superior to 40 and 75 mg/kg; for Mitigation of WBI lethality, oral gavage 5 mg/kg / Mitigation of WBI lethality, oral gavage 25 mg/kg: orally by gavage, 5 daily doses starting 24 hours post-WBI, C3H and C57Bl/6 strains; for Effect of increasing the single dose: single dose increased to 25 mg/kg, 24 hours after WBI; for Mitigation of WBI lethality, single dose: single dose of 5 mg/kg given 24 hours after WBI
# Description: Briefly, Animal Whole Body Irradiation (WBI) Assays were conducted with C3Hf/Kam and C57B16/J mice. The mice were bred and maintained in a strict gnotobiotic environment in the American Association of Laboratory Animal Care-Accredited Animal Facilities of Department of Radiation Oncology, UCLA. The Animal Care and Use Committee approved all experiments, which were performed in accordance with all local and national guidelines for the care and use of animals. Mice, 9-12 weeks old, were given WBI using a Gamma cell 40 irradiator (Cs137 source; Atomic Energy of Canada, Ltd.) at a dose rate of […]. Mice were monitored for at least 30 days and defined criteria for humane euthanasia was used as an endpoint.
# Compounds were typically dissolved in 15 μL DMSO and suspended in 1 mL of 1% Cremphor EL in water for administration in 0.2 mL volumes. […] All mice, including controls, received the same diluent as the experimental groups. The chosen compounds were administered to the mice 5 times at 24 h intervals, starting 24 hours after WBI at LD70/30 (7.725 Gy for the C3H strain) doses. Similar data were obtained with a single dose and at 48 hours after radiation exposure in both mouse strains. Both subcutaneous and oral routes were effective. The compounds provided greatly elevated animals survival level as compared to control group.
# Dose response experiments were executed in a manner similar to the WBI Assay described in Example 3. […] Both Compound 2 (53555.12) and Compound 3 (5346360) were effective in C57Bl/6 female mice in this case mitigating against LD70/30 doses of 8.509 Gy due to the relative radioresistance of this strain relative to C3Hs. […] When given orally by gavage, Compound 2 (535551.2) in 5 daily doses starting at 24 hours post-WBI was effective at 5 mg/kg in both C3H and C57Bl/6 strains, but not at 25 mg/kg.
# Probit analyses of the effect of varying the radiation dose with Compound 2 (5355512) (5 mg/kg), and Compound 3 (5346360) (5 mg/kg), or 5 (5116319) (75 mg/kg) given subcutaneously for 5 days starting 24 hours after WBI, is shown in FIG. 6, with 95% confidence limits shown for LD50 values. The dose-response curves are steep with the dose modifying factors varying with the level of effect and drug, but were in the range 1.04-1.09. Such factors have to be considered against the level of the control and the reason for lethality. In this case, hematological insufficiency and not infection is the cause of death and as a result the radioresistance of the C3H strain is relatively high.
# Compounds P1, P2, and P3, analogs of Compound 2 (5355512), were synthesized according to standard protocols. […] The analogs were injected subcutaneously 5 times over 5 clays at 5 mg/kg. Compound P2 elicited 100% survival after 30 days.
# [8] = tested on: induced peritoneal macrophages; assay: Activation status of induced peritoneal macrophages after subcutaneous treatment of control or WBI mice; format: in vivo; conditions: for TNF-α production of induced peritoneal cells in response to LPS after treatment in vivo: compound given subcutaneously, macrophages harvested day 4, incubated 24 h with LPS
# Description: To determine if compound 2 (5355512), injected subcutaneously would affect the activation status of induced peritoneal macrophages, compound 2 (5355512) was given subcutaneously to control or WBI (5 Gy) and peritoneal macrophages harvested at day 4 as before. Cells from these groups of mice were incubated for 24 h with LPS or LPS then 512 (See FIG. 12). […] However, this “priming” effect was less when WBI and Compound 2 (5355512) were combined in vivo.
# [9] = tested on: myeloid suppressor cells; assay: In vivo anti-inflammatory activity, generation of myeloid suppressor cells; conditions: data not shown
# [10] = tested on: TNF-α mRNA; assay: Cytokine mRNA expression in LPS-stimulated bone marrow-derived macrophages (qPCR); format: cell-based, murine; conditions: added to bone marrow-derived macrophages 1 hr after LPS, RT-PCR
# Description: Additionally, bone marrow-derived macrophages (BMDMs) were derived by 7 days culture of marrow cells in medium containing 10% FBS and CSF-1 conditioned medium. The serum concentration was reduced to 2% FBS 16 h before stimulation with LPS for 30 min, treatment with drug and incubation for another 3.5 h (4 h total with LPS). Total cellular RNA was isolated by trizol and cDNA synthesized using iScript from BioRad. Gene expression was measured by qPCR and analyzed using the standard curve method, normalized to L32.
# [11] = tested on: Lewis lung (LLC) tumor lung colonies; assay: Lewis lung (LLC) model of artificial metastasis; format: in vivo, mice
# Description: The Lewis lung (LLC) model of artificial metastasis was used to test the effects of the drug on the growth of tumor lung colonies in vivo and on radiation response. This was chosen because it is easy to see any drug effects on growth promotion and radioprotection in multiple tumors simultaneously. Specifically, C57Bl/6 mice and C3H mice were injected intravenously with 5×10^4 tumor cells. Subcutaneous injections of compound 2 (5355512) were started on day 4 when the tumors were already established in the lung. A daily dose of 20 mg/kg for 5 days was used to bias the experiment in favor of any tumor growth promotion. Local thoracic irradiation (LTI) was started on day 5 with 4 Gy daily doses for 3 days. This is higher than conventional 2 Gy to compensate for the rapid growth of murine tumors, but is still well within the higher ranges used clinically in hypofractionated exposures. The colonies were counted on day 14. […] LTI alone decreased the number of colonies by 40%.
# [12] = Breakdown products identified in vivo by mass spectrometry; conditions: analog of Compound 2
# [13] = injected subcutaneously 5 times over 5 days at 5 mg/kg
smiles,measurement,setting,value
"O=[N+]([O-])c1ccc(S(=O)(=O)N2CCN(c3ccc(F)cc3)CC2)cc1 [Compound 1, 1-(4-fluorophenyl)-4-[(4-nitrobenzene)sulfonyl]piperazine]",solubility,[1],26.6 µM
same,viability at 10 µM,[2],188%
"O=[N+]([O-])c1ccc(S(=O)(=O)N2CCN(c3ccccc3)CC2)cc1 [Compound 2, 1-[(4-nitrobenzene)sulfonyl]-4-phenylpiperazine]",Survival post thoracic radiation,[3],supported survival of C3H mice and C57 mice to 100 days
same,Average endogenous CFU per spleen,[4],increased
same,Total endogenous CFU in spleens,[4],increased
same,Average endogenous CFU per spleen,[4]; listed as compound 2,increases
same,Total endogenous CFU in spleens,[4]; listed as compound 2,increases
same,Number of endogenous colony forming units in the spleens,[4]; mice that had received LD70/30 radiation doses,increased
same,Mitigation of abdominal radiation,[5],mitigation of abdominal radiation
same,solubility,[1],66.1 µM
same,TNF-α production,[6],inhibit TNF-α production
same,Anti-inflammatory activity: LPS-induced production of tumor necrosis factor and other inflammatory cytokines,[6]; murine macrophages,showed anti-inflammatory activity
same,Mitigation of WBI lethality at 5 mg/kg,[7],effective
same,Most effective dose in dose response,[7],5 mg/kg
same,Mitigation of WBI lethality in C57Bl/6 female mice,[7],effective
same,Survivors at day 30,[7],100%
same,"Mitigation of WBI lethality, oral gavage 5 mg/kg",[7],effective
same,"Mitigation of WBI lethality, oral gavage 25 mg/kg",[7],not
same,"Mitigation of WBI lethality, single dose at 48 hours",[7]; single dose given 48 hours after WBI,Some activity was retained
same,"Mitigation of WBI lethality, single dose at 72 hours",[7]; single dose given 72 hours after WBI,not
same,Effect of increasing the single dose,[7],did not improve efficacy
same,"Mitigation of WBI lethality, single dose",[7],effective
same,Priming effect when WBI and compound combined in vivo,[8]; WBI (5 Gy) plus compound subcutaneously,less
same,TNF-α production of induced peritoneal cells in response to LPS after treatment in vivo,[8],“primed” induced peritoneal cells to produce TNF-α
same,TNF-α production of induced peritoneal cells in response to LPS after treatment in vivo,[8]; listed as compound 2,induces peritoneal macrophages to produce TNF-α
same,TNF-α production after addition of compound in vitro,[8]; harvested cells incubated with LPS then compound,blunted TNF-α production
same,Anti-inflammatory activity in vivo,[9],showed anti-inflammatory activity
same,Expression of TNF-α mRNA and other cytokines,[10],"inhibit expression of TNF-α mRNA, and other cytokines"
same,Number of colonies with LTI plus drug versus LTI alone,[11]; 20 mg/kg daily for 5 days plus local thoracic irradiation 4 Gy daily for 3 days from day 5,not further decreased
same,Decrease in number of lung tumor colonies,"[11]; 20 mg/kg subcutaneously daily for 5 days from day 4, colonies counted day 14, P<0.05",20%
same,Size of lung tumor colonies,"[11]; 20 mg/kg subcutaneously daily for 5 days from day 4, day 14",smaller in size
same,viability at 10 µM,[2],182%
O=[N+]([O-])c1ccc(S(=O)(=O)N2CCN(c3cccc(Cl)c3)CC2)cc1 [Compound 3],solubility,[1],6.5 µM
same,TNF-α production,[6],inhibit TNF-α production
same,Mitigation of WBI lethality at 5 mg/kg,[7],effective
same,Most effective dose in dose response,[7],5 mg/kg
same,Mitigation of WBI lethality in C57Bl/6 female mice,[7],effective
same,Survivors at day 30,[7],100%
same,"Mitigation of WBI lethality, oral gavage 5 mg/kg",[7],inactive
same,"Mitigation of WBI lethality, oral gavage 25 mg/kg",[7],inactive
same,Effect of increasing the single dose,[7],did not improve efficacy
same,"Mitigation of WBI lethality, single dose",[7],effective
same,Expression of TNF-α mRNA and other cytokines,[10],"inhibit expression of TNF-α mRNA, and other cytokines"
same,viability at 10 µM,[2],174%
"O=[N+]([O-])c1ccc(S(=O)(=O)N2CCN(C/C=C/c3ccccc3)CC2)cc1 [Compound 4, 1-[(4-nitrobenzene) Sulfonyl]-4-[(2E)-3-phenylprop-2-en-1-yl]piperazine]",solubility,[1],20.4 µM
same,viability at 10 µM,[2],163%
"CCN(CC)S(=O)(=O)c1ccc([N+](=O)[O-])cc1 [Compound 5, N,N-diethyl-4-nitrophenyl-1-sulfonamide]",solubility,[1],513 µM
same,TNF-α production,[6],able to inhibit TNF-α production
same,viability at 10 µM,[2],161%
O=[N+]([O-])c1ccc(S(=O)(=O)N2CCNCC2)cc1 [Compound P1],Solubility in water,[1],soluble in water
same,Mitigation of WBI lethality by analogs,[7]; [13],effective
same,Breakdown product identification,[12],natural breakdown product identified in vivo
NCCNS(=O)(=O)c1ccc([N+](=O)[O-])cc1 [Compound P2],Solubility in water,[1],soluble in water
same,Survival after 30 days,[7]; [13],100%
NCCCCCCCCNS(=O)(=O)c1ccc([N+](=O)[O-])cc1 [Compound P3],Solubility in water,[1],soluble in water
